Data taken from ChEMBL document CHEMBL3425433, “Discovery of bicyclic pyrazoles as class III histone deacetylase SIRT1 and SIRT2 inhibitors” (Bioorg Med Chem Lett, 2015).
Activity calls are given as the source filed them. No cut-off for these calls is given here.

What was measured:
[1] = molecular target: T1, Protein deacetylase HDAC6 (Homo sapiens, UniProt Q9UBN7); assay: Inhibition of HDAC6 (unknown origin)
T1 sequence (Q9UBN7 whole entry): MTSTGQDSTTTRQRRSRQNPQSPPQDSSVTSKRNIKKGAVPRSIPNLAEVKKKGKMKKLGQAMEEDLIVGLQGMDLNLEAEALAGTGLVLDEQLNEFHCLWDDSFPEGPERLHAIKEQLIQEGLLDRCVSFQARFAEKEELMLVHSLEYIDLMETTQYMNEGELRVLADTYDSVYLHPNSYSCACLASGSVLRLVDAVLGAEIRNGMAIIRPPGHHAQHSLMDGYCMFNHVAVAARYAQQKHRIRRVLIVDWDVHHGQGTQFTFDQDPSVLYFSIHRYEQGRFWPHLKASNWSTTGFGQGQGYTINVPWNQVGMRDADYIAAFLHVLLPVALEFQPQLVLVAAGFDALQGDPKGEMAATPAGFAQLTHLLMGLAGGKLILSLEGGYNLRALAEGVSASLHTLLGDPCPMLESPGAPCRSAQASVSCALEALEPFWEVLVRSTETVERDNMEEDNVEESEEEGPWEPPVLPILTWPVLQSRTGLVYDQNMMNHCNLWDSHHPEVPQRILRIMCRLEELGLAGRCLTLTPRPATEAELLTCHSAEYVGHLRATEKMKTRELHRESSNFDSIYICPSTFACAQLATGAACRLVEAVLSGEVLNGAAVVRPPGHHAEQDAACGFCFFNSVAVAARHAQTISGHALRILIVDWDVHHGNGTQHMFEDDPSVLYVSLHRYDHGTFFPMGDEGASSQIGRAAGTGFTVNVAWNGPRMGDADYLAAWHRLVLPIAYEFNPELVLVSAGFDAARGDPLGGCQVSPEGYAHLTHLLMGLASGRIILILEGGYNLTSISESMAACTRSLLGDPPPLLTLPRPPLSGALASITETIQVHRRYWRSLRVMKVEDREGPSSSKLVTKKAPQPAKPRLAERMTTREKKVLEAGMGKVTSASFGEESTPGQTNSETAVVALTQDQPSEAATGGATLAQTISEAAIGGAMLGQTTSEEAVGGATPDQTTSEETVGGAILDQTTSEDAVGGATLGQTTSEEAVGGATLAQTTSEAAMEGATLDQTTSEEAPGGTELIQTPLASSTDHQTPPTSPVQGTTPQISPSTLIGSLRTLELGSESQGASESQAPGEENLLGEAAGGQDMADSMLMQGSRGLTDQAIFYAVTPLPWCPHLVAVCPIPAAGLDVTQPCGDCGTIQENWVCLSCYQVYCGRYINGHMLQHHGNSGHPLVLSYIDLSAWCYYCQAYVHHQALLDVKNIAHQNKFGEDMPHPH

[2] = molecular target: T2, Histone deacetylase 8 (Homo sapiens, UniProt Q9BY41); assay: Inhibition of HDAC8 (unknown origin)
T2 sequence (Q9BY41 whole entry): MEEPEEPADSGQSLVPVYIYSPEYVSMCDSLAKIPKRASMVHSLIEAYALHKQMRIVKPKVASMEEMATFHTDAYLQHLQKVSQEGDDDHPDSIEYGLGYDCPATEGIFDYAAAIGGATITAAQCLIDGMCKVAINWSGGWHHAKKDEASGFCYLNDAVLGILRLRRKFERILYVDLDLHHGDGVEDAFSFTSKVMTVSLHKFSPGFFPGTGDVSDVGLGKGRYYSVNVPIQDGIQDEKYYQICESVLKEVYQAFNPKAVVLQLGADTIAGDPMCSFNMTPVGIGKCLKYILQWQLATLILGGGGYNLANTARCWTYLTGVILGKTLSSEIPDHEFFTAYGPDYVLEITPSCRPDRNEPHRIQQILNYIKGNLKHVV

[3] = molecular target: Histone deacetylase 4 (Homo sapiens) (UniProt P56524); assay: Inhibition of HDAC4 (unknown origin) at 20 uM
Histone deacetylase 4 (Homo sapiens), sequence (P56524 whole entry): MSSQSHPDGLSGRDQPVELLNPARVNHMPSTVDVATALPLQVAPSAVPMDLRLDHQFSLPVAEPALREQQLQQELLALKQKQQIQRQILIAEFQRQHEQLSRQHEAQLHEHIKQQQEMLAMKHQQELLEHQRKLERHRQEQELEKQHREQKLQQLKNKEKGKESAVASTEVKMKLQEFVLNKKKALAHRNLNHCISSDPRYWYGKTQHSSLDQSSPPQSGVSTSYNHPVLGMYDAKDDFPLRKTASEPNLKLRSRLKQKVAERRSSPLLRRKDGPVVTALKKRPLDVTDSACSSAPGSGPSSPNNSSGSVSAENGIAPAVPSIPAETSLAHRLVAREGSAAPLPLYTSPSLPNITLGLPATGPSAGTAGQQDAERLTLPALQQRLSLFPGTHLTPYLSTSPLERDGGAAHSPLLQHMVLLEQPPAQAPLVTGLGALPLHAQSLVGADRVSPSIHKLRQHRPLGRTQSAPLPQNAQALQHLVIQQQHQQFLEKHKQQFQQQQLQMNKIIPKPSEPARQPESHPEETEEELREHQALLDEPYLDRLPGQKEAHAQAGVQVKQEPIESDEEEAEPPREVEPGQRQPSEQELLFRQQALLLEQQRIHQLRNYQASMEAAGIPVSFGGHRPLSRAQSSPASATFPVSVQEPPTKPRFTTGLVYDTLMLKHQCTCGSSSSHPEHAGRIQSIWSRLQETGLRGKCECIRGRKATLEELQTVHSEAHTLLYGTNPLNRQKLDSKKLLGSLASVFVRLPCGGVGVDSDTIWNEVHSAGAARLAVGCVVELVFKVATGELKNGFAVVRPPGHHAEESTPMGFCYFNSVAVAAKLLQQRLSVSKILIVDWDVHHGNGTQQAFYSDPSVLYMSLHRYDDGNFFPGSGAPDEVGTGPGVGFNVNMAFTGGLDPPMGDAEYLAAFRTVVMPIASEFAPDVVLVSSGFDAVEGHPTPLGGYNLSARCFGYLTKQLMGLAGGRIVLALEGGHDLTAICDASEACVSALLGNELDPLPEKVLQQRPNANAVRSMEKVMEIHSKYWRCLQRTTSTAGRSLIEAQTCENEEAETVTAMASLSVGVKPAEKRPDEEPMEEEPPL

- IC50 [1]: > 10 µM
- IC50 [2]: > 10 µM
- inhibition [3]: inactive
SMILES: NC(=O)C1CCCc2c(-c3ccc(Cl)c(Cl)c3)n[nH]c21 (racemic)
